Data reported in paper PMC7922803, “Development and Validation of an LC-MS/MS Method for Quantification of the Novel Antibacterial Candidate DA-7010 in Plasma and Application to a Preclinical Pharmacokinetic Study” (Pharmaceuticals, 2021).
Several values for one entry are separate records, joined by “and”; a condition that tells them apart may be missing. Equal entries are not always repeated.

Columns and labels:
[1] = Pharmacokinetic study after single oral administration to mice; format: in vivo; conditions: male, ICR, mouse, plasma
Text: (§1) The validated method was applied to pharmacokinetic studies of DA-7010 in mice, rats, and dogs. The protocols for the animal study were approved by the Department of Laboratory Animals, Institutional Animal Care and Use Committee (IACUC), on the Sungsim Campus of the Catholic University of Korea (approval no. 2014-022) or by IACUC of Biotoxtech (Cheongju, South Korea) (approval no. 140765). Male ICR mice and Sprague-Dawley rats (~8 weeks old) were purchased from Samtaco Bio (Osan, South Korea). Male beagle dogs (~10 months old), which are products from Beijing Marshall Biotechnology (Beijing, China), were used for this study. The accommodation and handling procedures for the animals were similar to those previously reported. Prior to dosing, the animals were fasted for 15 h and allowed to drink water freely. DA-7010 hydrochloride was administered in the pharmacokinetic study, and the dose of DA-7010 described below is based on the free base form of DA-7010.
DA-7010 (dissolved in distilled water) at a dose of 3 mg (in 10 mL) per kilogram was administered orally to the mouse groups A and B (n = 6 each) using gastric gavage. Blood samples (~ 50 μL) were collected into separate heparinized capillary tubes from the retro-orbital plexuses of mice that were under light anesthesia, which was achieved by isoflurane inhalation at 5, 30, 120, and 480 min for group A and 15, 60, 240, and 600 min for group B following the oral administration of DA-7010. The collected sample was immediately centrifuged, and a 25 μL plasma sample was stored at −20 °C until it was used for the LC-MS/MS analyses of DA-7010.
(§2) The pharmacokinetic parameters were calculated using noncompartmental analyses (WinNonlin; Pharsight Corporation, Mountain View, CA, USA). The AUC0-∞ was calculated using the trapezoidal rule-extrapolation method. The Cmax and Tmax were read directly from the experimental data.

[2] = Stability of DA-7010 in dog plasma under various storage conditions; format: in vitro ADME; conditions: n = 3, mean ± SD
Procedure: (§3) The stability of DA-7010 in the plasma from the mice, rats, and dogs was evaluated by analyzing 3 replicates of low, medium, and high QC samples under various storage conditions: the bench-top short-term stability (at room temperature for 8 h), post-preparative stability (prepared samples kept in LC vials at 4 °C for 24 h), freeze–thaw stability (3 freeze/thaw (−20 °C/room temperature) cycles), and long-term freezing stability (−20 °C for 1 month). The analyte was determined to be stable when the estimated recovery (determined concentration/nominal concentration × 100%) was in the range of 85–115% and the RSD was < 15%.

[3] = test system: Gram-negative bacteria (except for Pseudomonas aeruginosa); set-up: method as in earlier work; conditions: cited from earlier work
[4] = test system: carbapenem-resistant Acinetobacter baumannii; set-up: method as in earlier work; conditions: mice systemically infected with carbapenem-resistant Acinetobacter baumannii; cited from earlier work
[5] = Pharmacokinetic study after single oral administration to rats; format: in vivo; conditions: male, Sprague-Dawley, plasma, rat
Text: as §1
For the rat, the carotid artery was cannulated for serial blood sampling. DA-7010 (dissolved in distilled water) at a dose of 3 mg (in 2 mL) per kilogram was administered orally to the rats (n = 7) using gastric gavage. Blood samples (~50 μL) were collected at 0, 5, 10, 20, 30, 60, 120, 240, 360, 480, and 720 min via the carotid artery following the oral administration of the drug. The cannula was flushed immediately after each blood sampling to prevent blood clotting using a 0.3 mL heparinized 0.9% NaCl-injectable solution (20 units/mL). The same procedure described above was used for the collection and storage of the plasma samples.
as §2

[6] = Stability of DA-7010 in plasma, summary over all species; format: in vitro ADME, mice, rats, and dogs
Procedure: as §3

[7] = Stability of DA-7010 in mouse plasma under various storage conditions; format: in vitro ADME; conditions: n = 3, mean ± SD
Procedure: as §3

[8] = Pharmacokinetic study after single oral administration to dogs; format: in vivo
Text: as §1
For the oral administration of DA-7010 in dogs, 3 mg/kg DA-7010 was loaded in a gelatin capsule (size 12, Torpac Inc., Fairfield, NJ, USA) without other excipients. Approximately 2 mL of blood was collected via the cephalic vein using a heparinized (100 IU/mL) 23 G syringe at pre-dose and 15, 30, 45, 60, 120, 240, 360, 480, 720, and 1440 min after the administration of the drug. The collection and storage of each plasma sample (25 μL) and extra plasma sample were performed using the same procedure described above.
as §2

[9] = Stability of DA-7010 in rat plasma under various storage conditions; format: in vitro ADME; conditions: n = 3, mean ± SD
Procedure: as §3

[10] = mice, single oral dose 3 mg/kg, from mean concentration–time profile
[11] = representative sample 4 h after oral 3 mg/kg, read-out: Plasma concentration of DA-7010
[12] = 3 freeze/thaw (–20 °C/room temperature) cycles, nominal 30 ng/mL
[13] = 3 freeze/thaw (–20 °C/room temperature) cycles, nominal 400 ng/mL
[14] = 3 freeze/thaw (–20 °C/room temperature) cycles, nominal 8000 ng/mL
[15] = long term (‒20 °C over 1 month), nominal 30 ng/mL
[16] = long term (‒20 °C over 1 month), nominal 400 ng/mL
[17] = long term (‒20 °C over 1 month), nominal 8000 ng/mL
[18] = prepared plasma samples in LC vials, post-preparative (prepared samples 4 °C 24 h), nominal 30 ng/mL
[19] = prepared plasma samples in LC vials, post-preparative (prepared samples 4 °C 24 h), nominal 400 ng/mL
[20] = prepared plasma samples in LC vials, post-preparative (prepared samples 4 °C 24 h), nominal 8000 ng/mL
[21] = short term (room temperature 8 h), nominal 30 ng/mL
[22] = short term (room temperature 8 h), nominal 400 ng/mL
[23] = short term (room temperature 8 h), nominal 8000 ng/mL
[24] = rats (n = 7), single oral dose 3 mg/kg, mean ± SD
[25] = male, beagle, dog, plasma, dogs (n = 4), single oral dose 3 mg/kg in gelatin capsule, mean ± SD

## C[C@@H]1COB2O[C@H](CN)c3cccc(c32)O1 [DA-7010, ((2S,7R)-7-methyl-7,8-dihydro-2H-1,6,9-trioxa-9a-borabenzo[cd]azulen-2-yl)methanamine]
[1]; [10]
  Cmax: 1280 ng/mL
  Tmax: 0.25 h
[1]; mice, single oral dose 3 mg/kg, from mean concentration–time profile (n = 6 per point)
  AUC(0-inf): 3920 ng·h/mL
[1]; mice, single oral dose 3 mg/kg, from mean concentration–time profile, read-out: Terminal half-life
  half-life: 2.08 h
[1]; [11]
  concentration at 4 h: 334 ng/mL
[2]; [12]
  recovery at 30 ng/mL: 110 ± 3.32%
[2]; [13]
  recovery at 400 ng/mL: 107 ± 2.01%
[2]; [14]
  recovery at 8000 ng/mL: 114 ± 0.0718%
[2]; [15]
  recovery at 1 month, 30 ng/mL: 113 ± 0.5%
[2]; [16]
  recovery at 1 month, 400 ng/mL: 97.3 ± 1.22%
[2]; [17]
  recovery at 1 month, 8000 ng/mL: 111 ± 3.13%
[2]; [18]
  recovery at 24 h, 30 ng/mL: 110 ± 5.48%
[2]; [19]
  recovery at 24 h, 400 ng/mL: 108 ± 1.72%
[2]; [20]
  recovery at 24 h, 8000 ng/mL: 116 ± 2.34%
[2]; [21]
  recovery at 8 h, 30 ng/mL: 107 ± 3.08%
[2]; [22]
  recovery at 8 h, 400 ng/mL: 92.9 ± 1.62%
[2]; [23]
  recovery at 8 h, 8000 ng/mL: 108 ± 1.22%
[3]
  minimum inhibitory concentration (MIC): 0.25 to 2 µg/mL
[4]
  ED50 (effective oral dose that protected 50% of mice): 3 mg/kg and 1.9 to 3 mg/kg
[5]; [11]
  concentration at 4 h: 648 ng/mL
[5]; [24]
  AUC(0-inf): 5320 ng·h/mL
  Cmax: 1330 ± 427 ng/mL
[5]; rats (n = 7), single oral dose 3 mg/kg, mean ± SD, read-out: Terminal half-life
  half-life: 2.88 ± 0.81 h
[5]; rats (n = 7), single oral dose 3 mg/kg, median (range)
  Tmax: 0.333 h
[6]; 8 h at room temperature, 24 h in LC vial at 4 °C after preparation, 1 month at –20 °C
  Stability, mean recoveries: > 85.5%
[6]; after three freeze/thaw (–20 °C/room temperature) cycles
  Stability, mean recoveries: > 87.7%
[7]; [12]
  recovery at 30 ng/mL: 109 ± 6.63%
[7]; [13]
  recovery at 400 ng/mL: 91.2 ± 2.22%
[7]; [14]
  recovery at 8000 ng/mL: 87.7 ± 2.58%
[7]; [15]
  recovery at 1 month, 30 ng/mL: 106 ± 1.54%
[7]; [16]
  recovery at 1 month, 400 ng/mL: 95.5 ± 3.04%
[7]; [17]
  recovery at 1 month, 8000 ng/mL: 88.5 ± 1.77%
[7]; [18]
  recovery at 24 h, 30 ng/mL: 106 ± 5.14%
[7]; [19]
  recovery at 24 h, 400 ng/mL: 92.7 ± 2.58%
[7]; [20]
  recovery at 24 h, 8000 ng/mL: 89.9 ± 7.84%
[7]; [21]
  recovery at 8 h, 30 ng/mL: 109 ± 4.97%
[7]; [22]
  recovery at 8 h, 400 ng/mL: 97.5 ± 6.48%
[7]; [23]
  recovery at 8 h, 8000 ng/mL: 89 ± 2.24%
[8]; [25]
  AUC(0-inf): 21800 ng·h/mL
  Cmax: 1820 ± 90.1 ng/mL
[8]; male, beagle, dog, plasma, dogs (n = 4), single oral dose 3 mg/kg in gelatin capsule, mean ± SD, read-out: Terminal half-life
  half-life: 7.53 ± 0.563 h
[8]; male, beagle, dog, plasma, dogs (n = 4), single oral dose 3 mg/kg in gelatin capsule, median (range)
  Tmax: 1 h
[8]; male, beagle, plasma, dog, representative sample 4 h after oral 3 mg/kg, read-out: Plasma concentration of DA-7010
  concentration at 4 h: 1950 ng/mL
[8]; single oral dose 3 mg/kg
  Systemic exposure in dogs relative to mice or rats: approximately four times higher
[9]; [12]
  recovery at 30 ng/mL: 107 ± 5.92%
[9]; [13]
  recovery at 400 ng/mL: 94.8 ± 6.2%
[9]; [14]
  recovery at 8000 ng/mL: 100 ± 0.407%
[9]; [15]
  recovery at 1 month, 30 ng/mL: 85.5 ± 0.618%
[9]; [16]
  recovery at 1 month, 400 ng/mL: 95.2 ± 3.3%
[9]; [17]
  recovery at 1 month, 8000 ng/mL: 107 ± 2.67%
[9]; [18]
  recovery at 24 h, 30 ng/mL: 95.5 ± 3.65%
[9]; [19]
  recovery at 24 h, 400 ng/mL: 101 ± 1.33%
[9]; [20]
  recovery at 24 h, 8000 ng/mL: 111 ± 4.06%
[9]; [21]
  recovery at 8 h, 30 ng/mL: 110 ± 4.64%
[9]; [22]
  recovery at 8 h, 400 ng/mL: 97.9 ± 0.394%
[9]; [23]
  recovery at 8 h, 8000 ng/mL: 104 ± 0.647%
